Results published in publication PMC11792023, “PNPO‐Mediated Oxidation of DVL3 Promotes Multiple Myeloma Malignancy and Osteoclastogenesis by Activating the Wnt/β‐Catenin Pathway” (Advanced Science, 2024).

What was measured:
[1] = target: T1, PNPO (pyridoxine-5'-phosphate oxidase) (Homo sapiens, UniProt Q9NVS9); experiment: microscale thermophoresis (MST) with RED-NHS-labelled purified protein; type: binding
T1 construct: PNPO WT, 6×His tag (pet-28a)
T1 sequence (Q9NVS9 1-261): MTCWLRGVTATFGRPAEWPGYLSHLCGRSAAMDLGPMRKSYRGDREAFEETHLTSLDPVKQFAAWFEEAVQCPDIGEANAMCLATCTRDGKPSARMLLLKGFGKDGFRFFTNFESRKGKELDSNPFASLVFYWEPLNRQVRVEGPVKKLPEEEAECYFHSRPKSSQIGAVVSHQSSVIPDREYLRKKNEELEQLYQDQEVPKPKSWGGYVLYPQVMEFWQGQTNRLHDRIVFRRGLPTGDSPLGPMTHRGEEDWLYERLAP

[2] = target: T1, PNPO (pyridoxine-5'-phosphate oxidase); experiment: microscale thermophoresis (MST); also HuProt […] proteome microarray with FITC-labelled celastrol; type: binding

| Compound | Kd [1] [nM] | microscale thermophoresis (MST); also HuProt 20K proteome microarray with FITC-l [2] |
| --- | --- | --- |
| CC1=NN(c2ccc(C)c(C)c2)C(=O)/C1=N\Nc1cccc(-c2cccc(C(=O)O)c2)c1O [Eltrombopag] | 180 ± 90 | – |
| CC1=C(O)C(=O)C=C2C1=CC=C1[C@@]2(C)CC[C@@]2(C)[C@@H]3C[C@](C)(C(=O)O)CC[C@]3(C)CC[C@]12C [celastrol] | – | MST analysis confirmed a direct interaction between celastrol and PNPO |
